Measured values taken from patent publication US4370330A, “Method of enhancing circulation with piperazines” (Merz & Company, priority 1979, dated 1983).
Structures can show the parent of a compound that is named as a salt. Where two headings read alike, the source gives them in different places.

Key:
[1] = tested on: cerebrovascular resistance; test: cerebrovascular resistance on the rabbit (Hutten and Vaupel), decrease in vascular resistance after arterial application; type: in vivo; conditions: for inhibition in vivo at 1 %: Oryctolagus cuniculus, read-out: ΔR % (relative decrease in vascular resistance)
Procedure: The therapeutic effect is expressed in terms of decrease in vascular resistance.
For this purpose 0.1 ml of a 1% solution of the test substance, i.e., according to the invention, was administered to the rabbit by arterial application. The decrease in vascular resistance (R) and the relative decrease in vascular resistance (ΔR%) were recorded and expressed in mm Hg min/l or in the valid S.I. unit k Pa min/ml, i.e., absolute decrease of resistance x time.
The activity of this compound was tested by means of the aforementioned method.

[2] = acute toxicity after oral application, LD50; conditions: in vivo
From the text: The therapeutic range of the substances according to the invention can again be described as excellent, since the LD50 values lie in a favorable range, as is shown by the results of acute toxicity tests on the mouse after oral application.

in vivo [3] = test: in vivo
From the text: The calculation of the therapeutic indices was based on the

in vivo [4] = test: in vivo; remark: listed apart in the source
[5] = Table 2; mean effective dose
[6] = Table 1, rabbit, 0.1 ml of a 1% solution, arterial application
[7] = Table 4, rabbit, 0.1 ml of a 1% solution, arterial application
[8] = mouse, po, read-out: Acute toxicity LD50, 24 h
[9] = mouse, po, read-out: Acute toxicity LD50, 14 days
[10] = Table 3, mouse oral, 24 h, read-out: Acute toxicities LD50, 24 h
[11] = Table 3, mouse oral, 14 days, read-out: Acute toxicities LD50, 14 days

SMILES | inhibition in vivo at 1 % [1, 6] | Absolute decrease of vascular resistance R [1, 6] | LD50 at 24 h [2, 10] | LD50 at 336 h [2, 11] | LD50 (in vivo [3]; iv) | selectivity ratio (in vivo [4]; iv) | ED50 [5] | also measured
C(=C\c1ccccc1)/CN1CCN(C(c2ccccc2)c2ccccc2)CC1 [Cinnarizine, reference compound] | 19.3% | 2,9 mm Hg min/l | – | – | – | – | – | Absolute decrease in vascular resistance R [1, 7]: 2.9 mm Hg min/l
COc1cc(CN2CCN(c3ccc(C)c(C)c3)CC2)cc(OC)c1OC [Example 1] | – | – | – | – | – | – | – | LD50 at 24 h [2, 8]: 348 mg/kg; LD50 at 336 h [2, 9]: 263 mg/kg; LD50 (in vivo [3]): 260 mg/kg; selectivity ratio (in vivo [4]): 13000; inhibition in vivo at 1 % [1, 7]: 24.3%
COc1cc(CN2CCN(c3ccc(Cl)c(C(F)(F)F)c3)CC2)cc(OC)c1OC [Example 2] | – | – | – | – | – | – | – | LD50 at 24 h [2, 8]: 328 mg/kg; LD50 at 336 h [2, 9]: 283 mg/kg; LD50 (in vivo [3]): 283 mg/kg; selectivity ratio (in vivo [4]): 3150; inhibition in vivo at 1 % [1, 7]: 26.3%
COc1cc(CN2CCN(c3ccc4c(c3)OCO4)CC2)cc(OC)c1OC [Example 3] | – | – | – | – | – | – | – | LD50 at 24 h [2, 8]: 312 mg/kg; LD50 at 336 h [2, 9]: 296 mg/kg; LD50 (in vivo [3]): 297 mg/kg; selectivity ratio (in vivo [4]): 2700; inhibition in vivo at 1 % [1, 7]: 22%
COc1cc(CN2CCN(c3cc(OC)c(OC)c(OC)c3)CC2)cc(OC)c1OC [Example 4] | – | – | – | – | – | – | – | LD50 at 24 h [2, 8]: 348 mg/kg; LD50 at 336 h [2, 9]: 348 mg/kg; LD50 (in vivo [3]): 350 mg/kg; selectivity ratio (in vivo [4]): 7000; inhibition in vivo at 1 % [1, 7]: 21.5%
COc1cc(CN2CCN(c3cc(C(F)(F)F)cc(C(F)(F)F)c3)CC2)cc(OC)c1OC [Example 5] | – | – | – | – | – | – | – | LD50 at 24 h [2, 8]: 300 mg/kg; LD50 at 336 h [2, 9]: 280 mg/kg; LD50 (in vivo [3]): 280 mg/kg; selectivity ratio (in vivo [4]): 5600; inhibition in vivo at 1 % [1, 7]: 20.6%
COc1cc(CN2CCN(c3c(C)cccc3C)CC2)cc(OC)c1OC [Example 6] | – | – | – | – | – | – | – | LD50 at 24 h [2, 8]: 348 mg/kg; LD50 at 336 h [2, 9]: 265 mg/kg; LD50 (in vivo [3]): 265 mg/kg; selectivity ratio (in vivo [4]): 3800; inhibition in vivo at 1 % [1, 7]: 23%
COc1cc(CN2CCN(c3ccccc3)CC2)cc(OC)c1OC.Cl [Example 21, N-(3,4,5-trimethoxy-benzyl)-N'-phenyl-piperazine hydrochloride] | – | – | – | – | – | – | – | LD50 at 24 h ([2]; mouse, oral, 24 hours, read-out: oral acute toxicity (LD50) after 24 hours): 320 mg/kg; LD50 at 336 h ([2]; mouse, oral, fourteen days, read-out: oral acute toxicity (LD50) after fourteen days): 265 mg/kg; Absolute decrease of vascular resistance R ([1]; Hutten and Vaupel rabbit test): 3.0 mm. Hg. min/l; circulation stimulant activity (in words) ([1]; Hutten and Vaupel rabbit test): circulation stimulant; decrease of vascular resistance (ΔR %) ([1]; Hutten and Vaupel rabbit test): 23.2%
COc1cccc(N2CCN(Cc3cc(OC)c(OC)c(OC)c3)CC2)c1.Cl [m. Methoxy-, N-(3,4,5-trimethoxy-benzyl)-N'-(3-methoxyphenyl)-piperazine hydrochloride] | 28.5% | 3,0 mm Hg min/l | 411 mg/kg | 285 mg/kg | 850 mg/kg | 2010 | 0,42 mg/kg | –
COc1cc(CN2CCN(c3cccc(C)c3)CC2)cc(OC)c1OC.Cl [m. Methyl-, N-(3,4,5-trimethoxy-benzyl)-N'-(3-methylphenyl)-piperazine hydrochloride] | 22% | 3,2 mm Hg min/l | 452 mg/kg | 310 mg/kg | 700 mg/kg | 1520 | 0,46 mg/kg | –
COc1cc(CN2CCN(c3ccccc3Cl)CC2)cc(OC)c1OC.Cl.Cl [o. Chloro-, N-(3,4,5-trimethoxy-benzyl)-N'-(2-chlorophenyl)-piperazine dihydrochloride] | 27.9% | 3,0 mm Hg min/l | 295 mg/kg | 255 mg/kg | 810 mg/kg | 2130 | 0,38 mg/kg | –
CCOc1ccccc1N1CCN(Cc2cc(OC)c(OC)c(OC)c2)CC1.Cl.Cl [o. Ethoxy-, N-(3,4,5-trimethoxy-benzyl)-N'-(2-ethoxyphenyl)-piperazine dihydrochloride] | 20.4% | 2,85 mm Hg min/l | 411 mg/kg | 266 mg/kg | 900 mg/kg | 1990 | 0,45 mg/kg | –
CCc1ccccc1N1CCN(Cc2cc(OC)c(OC)c(OC)c2)CC1.Cl.Cl [o. Ethyl-, N-(3,4,5-trimethoxy-benzyl)-N'-(2-ethylphenyl)-piperazine dihydrochloride] | 21.7% | 3,0 mm Hg min/l | 456 mg/kg | 311 mg/kg | 900 mg/kg | 2240 | 0,40 mg/kg | –
COc1cc(CN2CCN(c3ccccc3F)CC2)cc(OC)c1OC.Cl [o. Fluoro-, N-(3,4,5-trimethoxy-benzyl)-N'-(2-fluorophenyl)-piperazine hydrochloride] | 23% | 3,0 mm Hg min/l | – | – | 920 mg/kg | 2280 | 0,40 mg/kg | –
COc1ccccc1N1CCN(Cc2cc(OC)c(OC)c(OC)c2)CC1.Cl.Cl [o. Methoxy-, N-(3,4,5-trimethoxy-benzyl)-N'-(2-methoxyphenyl)-piperazine dihydrochloride] | 22.2% | 2,94 mm Hg min/l | – | – | 1150 mg/kg | 2750 | 0,42 mg/kg | –
COc1cc(CN2CCN(c3ccccc3C)CC2)cc(OC)c1OC [o. Methyl-, N-(3,4,5-trimethoxybenzyl)-N'-(2-methylphenyl)-piperazine] | 24.5% | 3,3 mm Hg min/l | 457 mg/kg | 311 mg/kg | 700 mg/kg | 1450 | 0,48 mg/kg | –
COc1cc(CN2CCN(c3ccccc3[N+](=O)[O-])CC2)cc(OC)c1OC.Cl [o. Nitro-, N-(3,4,5-trimethoxy-benzyl)-N'-(2-nitrophenyl)-piperazine hydrochloride] | 20.6% | 3,1 mm Hg min/l | 274 mg/kg | 201 mg/kg | 650 mg/kg | 1300 | 0,50 mg/kg | –
COc1cc(CN2CCN(c3ccc(F)cc3)CC2)cc(OC)c1OC.Cl [p. Fluoro-, N-(3,4,5-trimethoxy-benzyl)-N'-(4-fluorophenyl)-piperazine hydrochloride] | 26.4% | 4,6 mm Hg min/l | 350 mg/kg | 275 mg/kg | 580 mg/kg | 1570 | 0,37 mg/kg | –
COc1cc(CN2CCN(c3ccc(O)cc3)CC2)cc(OC)c1OC.Cl [p. Hydroxy-, N-(3,4,5-trimethoxy-benzyl)-N'-(4-hydroxyphenyl)-piperazine hydrochloride] | 19.5% | 2,8 mm Hg min/l | 306 mg/kg | 245 mg/kg | 1260 mg/kg | 2800 | 0,45 mg/kg | –
COc1ccc(N2CCN(Cc3cc(OC)c(OC)c(OC)c3)CC2)cc1.Cl.Cl [p. Methoxy-, N-(3,4,5-trimethoxy-benzyl)-N'-(4-methoxyphenyl)-piperazine dihydrochloride] | – | 3,90 mm Hg min/l | – | – | 910 mg/kg | 3050 | 0,30 mg/kg | inhibition in vivo at 1 % [1]: 27.8%
COc1cc(CN2CCN(c3ccc(C)cc3)CC2)cc(OC)c1OC [p. Methyl-, hydrochloride] | 23% | 3,3 mm Hg min/l | 459 mg/kg | 312 mg/kg | 720 mg/kg | 1630 | 0,44 mg/kg | –
